Source: PubChem BioAssay AID220 (DTP/NCI, 2004)
Inconclusive results are not listed.

Test system: CD8F1 mice, subcutaneous mammary adenocarcinoma, T/C%
Test: NCI In Vivo Anticancer Drug Screen. Data for tumor model Mammary Adenocarcinoma CD8F1 (subcutaneous) in CD8F1
Details: higher = larger tumour
Method in brief: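 Compound-treated versus vehicle-treated mice with transplantable tumors; survival or tumor size compared as T/C.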

CC[C@@]1(O)C[C@H](OC2CC(N(C)C)C(OC3CC(O)C(OC4CCC(=O)C(C)O4)C(C)O3)C(C)O2)c2c(cc3c(c2O)C(=O)c2c(O)cccc2C3=O)[C@H]1C(=O)OC (stereo partly specified)
T/C (endpoint: mean tumor weight, dose: 0.75 mg/kg/injection, schedule: Q01DX009 (ip), vehicle: saline): 108 % of control
T/C (endpoint: mean tumor weight, dose: 1.5 mg/kg/injection, schedule: Q01DX009 (ip), vehicle: saline): 75 % of control
T/C (endpoint: mean tumor weight, dose: 3.0 mg/kg/injection, schedule: Q01DX009 (ip), vehicle: saline): 35 % of control
T/C (endpoint: mean tumor weight, dose: 6.0 mg/kg/injection, schedule: Q01DX009 (ip), vehicle: saline): 5 % of control
T/C (endpoint: median tumor weight (est.), dose: 2.97 mg/kg/injection, schedule: Q07DX005 (ip), vehicle: water): 122 % of control
T/C (endpoint: median tumor weight (est.), dose: 4.45 mg/kg/injection, schedule: Q07DX005 (ip), vehicle: water): 87 % of control
T/C (endpoint: median tumor weight (est.), dose: 6.67 mg/kg/injection, schedule: Q07DX005 (ip), vehicle: water): 92 % of control
T/C (endpoint: median tumor weight (est.), dose: 10.0 mg/kg/injection, schedule: Q07DX005 (ip), vehicle: water): 61 % of control
T/C (endpoint: median tumor weight (est.), dose: 15.0 mg/kg/injection, schedule: Q07DX005 (ip), vehicle: water): 11 % of control

CC(=O)ON(C(C)=O)c1ccc(C(N)=O)cc1
T/C (endpoint: median tumor weight change, dose: 62.5 mg/kg/injection, schedule: Q01DX001 (ip), vehicle: saline with Tween-80): 68 % of control
T/C (endpoint: median tumor weight change, dose: 125.0 mg/kg/injection, schedule: Q01DX001 (ip), vehicle: saline with Tween-80): 96 % of control
T/C (endpoint: median tumor weight change, dose: 250.0 mg/kg/injection, schedule: Q01DX001 (ip), vehicle: saline with Tween-80): 64 % of control

Cc1cc(N/N=C/c2ccccn2)nc2ccccc12
T/C (endpoint: median tumor weight change, dose: 31.25 mg/kg/injection, schedule: Q01DX001 (ip), vehicle: Klucel (hydroxypropylcellulose) (HPC)): 92 % of control
T/C (endpoint: median tumor weight change, dose: 62.5 mg/kg/injection, schedule: Q01DX001 (ip), vehicle: Klucel (hydroxypropylcellulose) (HPC)): 100 % of control
T/C (endpoint: median tumor weight change, dose: 125.0 mg/kg/injection, schedule: Q01DX001 (ip), vehicle: Klucel (hydroxypropylcellulose) (HPC)): 96 % of control
T/C (endpoint: median tumor weight change, dose: 250.0 mg/kg/injection, schedule: Q01DX001 (ip), vehicle: Klucel (hydroxypropylcellulose) (HPC)): 59 % of control
